Structures can show the parent of a compound that is named as a salt.
Experiments:
Type in all cases: in vivo
[1] = tested on: IPOHE (Ipomoea hederacea Jacq., ivyleaf morningglory); experiment: Example I postemergence foliar-applied mixtures, direct seeded rice weeds, greenhouse: IPOHE; settings: for Visual Weed Control (%) - 21 DAA IPOHE Obs: glyphosate IPA salt (Rodeo) alone
Procedure: (§1) Seeds or nutlets of the desired test plant species were planted in a soil matrix prepared by mixing a loam or sandy loam soil (e.g., 28.6 percent silt, 18.8 percent clay, and 52.6 percent sand, with a pH of about 5.8 and an organic matter content of about 1.8 percent) and calcareous grit in an 80 to 20 ratio. The soil matrix was contained in plastic pots with a volume of 1 quart and a surface area of 83.6 square centimeters (cm^2). […] The plants were grown for 8-22 days in a greenhouse with an approximate 14 hr photoperiod which was maintained at about 29° C. during the day and 26° C. during the night. Nutrients (Peters Excel® 15-5-15 5-Ca 2-Mg and iron chelate) were applied in the irrigation solution as needed and water was added on a regular basis. Supplemental lighting was provided with overhead metal halide 1000-Watt lamps as necessary. The plants were employed for testing when they reached the first through fourth true leaf stage.
(§2) Treatments consisted of the acid or esters of 4-amino-3-chloro-5-fluoro-6-(4-chloro-2-fluoro-3-methoxy-phenyl)pyridine-2-carboxylic acid (Compound A), each formulated as an SC (suspension concentrate), and various herbicidal components alone and in combination. Forms of compound A were applied on an acid equivalent basis.
(§3) For treatments comprised of formulated compounds, measured amounts of compounds were placed individually in 25 mL glass vials and diluted in a volume of 1.25% (v/v) Agri-Dex® crop oil concentrated to obtain 12× stock solutions. […] Application solutions were prepared by adding an appropriate amount of each stock solution (e.g., 1 mL) and diluted to the appropriate final concentrations with the addition of 10 mL of an aqueous mixture of 1.25% (v/v) crop oil concentrate so that the final spray solutions contained 1.25+/−0.05% (v/v) crop oil concentrate.
(§4) All stock solutions and applications solutions were visually inspected for compound compatibility prior to application. Spray solutions were applied to the plant material with an overhead Mandel track sprayer equipped with a 8002E nozzles calibrated to deliver 187 L/ha over an application area of 0.503 m^2 at a spray height of 18 to 20 inches (46 to 50 cm) above average plant canopy height. Control plants were sprayed in the same manner with the solvent blank.
(§5) The treated plants and control plants were placed in a greenhouse as described above and watered by sub-irrigation to prevent wash-off of the test compounds. After approximately 3 weeks, the condition of the test plants as compared with that of the untreated plants was determined visually and scored on a scale of 0 to 100 percent where 0 corresponds to no injury or growth inhibition and 100 corresponds to complete kill.
(§6) Colby's equation was used to determine the herbicidal effects expected from the mixtures (Colby, S. R. 1967. Calculation of the synergistic and antagonistic response of herbicide combinations. Weeds 15:20-22.).

[2] = tested on: LEFCH (Leptochloa chinensis (L.) Nees, Chinese sprangletop); experiment: Example I postemergence foliar-applied mixtures, direct seeded rice weeds, greenhouse: LEFCH
Procedure: as §1, §2, §3, §4, §5, §6

[3] = tested on: ECHCG (Echinochloa crusgalli (L.) Beauv., barnyardgrass); experiment: Example I postemergence foliar-applied mixtures, direct seeded rice weeds, greenhouse: ECHCG; settings: for Visual Weed Control (%) - 21 DAA ECHCG Obs: glyphosate IPA salt (Glyphomax) alone
Procedure: as §1, §2, §3, §4, §5, §6

[4] = tested on: DIGSA (Digitaria sanguinalis (L.) Scop., large crabgrass); experiment: Example I postemergence foliar-applied mixtures, direct seeded rice weeds, greenhouse: DIGSA; settings: glyphosate IPA salt (Durango) alone, 377 gae/ha
Procedure: as §1, §2, §3, §4, §5, §6

[5] = tested on: ECHCO (Echinochloa colona (L.) Link, junglerice); experiment: Example I postemergence foliar-applied mixtures, direct seeded rice weeds, greenhouse: ECHCO
Procedure: as §1, §2, §3, §4, §5, §6

[6] = tested on: SCPMA (Schoenoplectus maritimus (L.) Lye or Bolboschoenus maritimus (L.) Palla, sea clubrush); experiment: Example II in-water applied mixtures, transplanted paddy rice weeds, greenhouse: SCPMA; settings: glyphosate IPA salt (Rodeo) alone
Procedure: Weed seeds or nutlets of the desired test plant species were planted in puddled soil (mud) prepared by mixing a shredded, non-sterilized mineral soil (50.5 percent silt, 25.5 percent clay, and 24 percent sand, with a pH of about 7.6 and an organic matter content of about 2.9 percent) and water at a 1:1 volumetric ratio. The prepared mud was dispensed in 365 mL aliquots into 16-ounce (oz.) non-perforated plastic pots with a surface area of 86.59 square centimeters (cm^2) leaving a headspace of 3 centimeters (cm) in each pot. Mud was allowed to dry overnight prior to planting or transplanting. Rice seeds were planted in Sun Gro MetroMix® 306 planting mixture, which typically has a pH of 6.0 to 6.8 and an organic matter content of about 30 percent, in plastic plug trays. Seedlings at the second or third leaf stage of growth were transplanted into 840 mL of mud contained in 32-oz. non-perforated plastic pots with a surface area of 86.59 cm^2 4 days prior to herbicide application. The paddy was created by filling the headspace of the pots with 2.5 to 3 cm of water. […] The plants were grown for 4-22 days in a greenhouse with an approximate 14 hr photoperiod which was maintained at about 29′C during the day and 26° C. during the night. Nutrients were added as Osmocote® (19:6:12, N:P:K+minor nutrients) at 2 g per 16-oz. pot and 4 g per 32-oz. pot. Water was added on a regular basis to maintain the paddy flood, and supplemental lighting was provided with overhead metal halide 1000-Watt lamps as necessary. The plants were employed for testing when they reached the first through fourth true leaf stage.
Treatments consisted of the acid or esters of 4-amino-3-chloro-5-fluoro-6-(4-chloro-2-fluoro-3-methoxy-phenyl)pyridine-2-carboxylic acid (compound A) each formulated as an SC (suspension concentrate) and various herbicidal components alone and in combination. Forms of compound A were applied on an acid equivalent basis.
For formulated compounds, a measured amount was placed in an individual 100 or 200 mL glass vial and was dissolved in a volume of 1.25% (v/v) Agri-Dex® crop oil concentrate to obtain application solutions.
Applications were made by injecting with a pipetter appropriate amounts of the application solutions, individually and sequentially, into the aqueous layer of the paddy. Control plants were treated in the same manner with the solvent blank. Applications were made so that all treated plant material received the same concentrations of acetone and crop oil concentrate.
The treated plants and control plants were placed in a greenhouse as described above and water was added as needed to maintain a paddy flood. After approximately 3 weeks the condition of the test plants as compared with that of the untreated plants was determined visually and scored on a scale of 0 to 100 percent where 0 corresponds to no injury or growth inhibition and 100 corresponds to complete kill.
as §6

[7] = Compound A n-Butyl Ester alone, 16 gae/ha
[8] = glyphosate IPA salt (Durango) alone, 377 gae/ha
[9] = glyphosate IPA salt (Glyphomax) alone, 124.5 gae/ha
[10] = glyphosate IPA salt (Glyphomax) alone, 249 gae/ha
[11] = glyphosate IPA salt (Rodeo) alone, 105 gae/ha
[12] = glyphosate IPA salt (Rodeo) alone, 210 gae/ha

## CCCCOC(=O)c1nc(-c2ccc(Cl)c(OC)c2F)c(F)c(N)c1Cl [Compound A n-Butyl Ester]
[1]; [7]
  Visual Weed Control (%) - 20 DAA IPOHE Obs: 15%
[2]; [7]
  Visual Weed Control (%) - 20 DAA LEFCH Obs: 10%
[3]; [7]
  Visual Weed Control (%) - 20 DAA ECHCG Obs: 65%

## O=C(O)CNCP(=O)(O)O [Glyphosate isopropylamine salt, N-(phosphonomethyl)glycine, reference compound]
[4]
  Visual Weed Control (%) - 20 DAA DIGSA Obs: 10%
[1]; 105 gae/ha
  Visual Weed Control (%) - 21 DAA IPOHE Obs: 15%
[1]; 210 gae/ha
  Visual Weed Control (%) - 21 DAA IPOHE Obs: 25%
[1]; 420 gae/ha
  Visual Weed Control (%) - 21 DAA IPOHE Obs: 55%
[2]; [8]
  Visual Weed Control (%) - 20 DAA LEFCH Obs: 88%
[2]; [9]
  Visual Weed Control (%) - 21 DAA LEFCH Obs: 0%
[2]; [10]
  Visual Weed Control (%) - 21 DAA LEFCH Obs: 45%
[2]; [11]
  Visual Weed Control (%) - 21 DAA LEFCH Obs: 25%
[2]; [12]
  Visual Weed Control (%) - 21 DAA LEFCH Obs: 75%
[2]; glyphosate IPA salt (Rodeo) alone, 420 gae/ha
  Visual Weed Control (%) - 21 DAA LEFCH Obs: 90%
[3]; [8]
  Visual Weed Control (%) - 20 DAA ECHCG Obs: 38%
[3]; 124.5 gae/ha
  Visual Weed Control (%) - 21 DAA ECHCG Obs: 0%
[3]; 249 gae/ha
  Visual Weed Control (%) - 21 DAA ECHCG Obs: 0%
[5]; [9]
  Visual Weed Control (%) - 21 DAA ECHCO Obs: 10%
[5]; [10]
  Visual Weed Control (%) - 21 DAA ECHCO Obs: 20%
[5]; [11]
  Visual Weed Control (%) - 21 DAA ECHCO Obs: 0%
[5]; [12]
  Visual Weed Control (%) - 21 DAA ECHCO Obs: 0%
[6]; 210 gae/ha
  Visual Weed Control (%) - 21 DAA SCPMA Obs: 0%
[6]; 420 gae/ha
  Visual Weed Control (%) - 21 DAA SCPMA Obs: 0%
